# Source: US20240182422A1, “PREPARATION METHOD OF QUINOLINE DERIVATIVE COMPOUNDS” (ABIVAX, priority 2021, published 2024)
# Columns and labels:
# [1] = Particle size distribution measurement (WET method, laser diffraction, Mastersizer); format: physicochemical; conditions: PSD wet method, dispersant demineralised water, Triton X100
# Text: Particle size distribution (PSD), summarized by D10, D50 and D90 values, were obtained by using the WET method, the details of which are as follows: • Material used: • Equipment: Mastersizer 300 (hydro MV) • Dispersant: demineralised water • Surfactant: Triton X100 • No saturation • Operational parameters: • optical model: Particles type (MS3000 only) no-spherical • Mie: • refractive index of particles: 1.443 • absorption index of particles: 0.1 • refractive index of the dispersant: 1.33 • Measurement: • Measurement time: 10 seconds • Measurement time of the background: 10 seconds • Stirrer speed: 1200 rpm +/−400 • Obscuration range: 5-19% • Delay time measurement: 1-5 minutes • Model: standard • Analysis precision: normal • Sample preparation: • Weight about 100 mg of product in a glass beaker • Add 2-4 drops of surfactant • Complete with the dispersant until the 20 mL mark of the 50 mL graduated beaker • Shake for 3 seconds to 60 seconds • Put in the external ultrasound cell • Sonication duration: 2-3minutes
# After the milling step 5, the milled sample thus obtained from example 4 was characterized by measurement of its particle size distribution (see table 3 below) according to the method as defined above.
# For comparison purposes, the measurement of the particle size distribution has also been carried out for the native 8-chloro-N-(4-(trifluoromethoxy)phenyl)quinolin-2-amine (Form I) obtained from step 4 of example 4 above (i.e. product obtained from example 4 before milling).
# [2] = USP <711> / Ph. Eur. 2.9.3 pharmacopeial dissolution profile (apparent dissolution test, paddle apparatus); format: physicochemical; conditions: for solubility (percentage dissolved) at 45 min: 50 mg drug substance, 900 mL 0.25% CTAB in 0.1 M HCl, paddle USP type II 100 rpm
# Procedure: Pharmacopeial (USP <711>, Ph. Eur. 2.9.3) dissolution profiles of the drug substance were established.
# A dissolution experiment evaluates the rate and extent that a compound forms a solution under carefully controlled conditions and using paddle dissolution apparatus fulfilling USP <711>, Ph. Eur. 2.9.3 requirements.
# The dissolution profiles of 50 mg from a native ABX464 and one milled ABX 464 (8000 rpm) drug substance (DS) in the dissolution media have been compared.
# The dissolution conditions and materials were as follows: • Equipment • Class A glassware • Analytical scale • Automatic pipette • UPLC system consisting of a binary or quaternary pump, an automated injector, a thermostated column oven, and a UV or DAD detector controlled by the Waters Empower® software • AT 7 smart (Sotax) or equivalent dissolution apparatus with USP type II paddle • Chemicals • water (dissolution medium) Demineralized water purified by Milli_Q Millipore (type II) • Demineralized water purified by Milli_Q Millipore • syringe filter Spartan 30 mm HPLC-Certified syringe Filter, 0.2 μm, RC (regenerated cellulose) • Acetonitrile Biosolve (UPLC grade) (ACN) • Cetyl trimethylammonium bromide (CTAB) • Hydrochloric acid (HCl) 1M (AVS tritinorm) • Formic acid (LCMS grade) • Chromatographic conditions • Column: Acquity UPLC BEH C18, 2.1 mm ID*50 mm, 1.7 μm pore size or equivalent • Mobile phase A: 0.1% (v/v) Formic acid in water • Mobile phase B: ACN • Isocratic mode 35% A/65% B • Flow rate 0.3 mL/min • Analytical run time: 5 min • Volume injection: 5 μL • Detection: UV at 220 nm • Autosampler: room temperature • Column temperature: 40° C. • Needle wash: Water/ACN (50/50 v/v) • Diluent • Dissolution medium: 0.25% CTAB in 0.1 M HCl. Transfer 25 g of CTAB into a 10 000 mL volumetric flask, add 1 000 mL of HCl 1M and dilute to volume with water (different amounts and volumes may be used as long as the final concentration remains the same) • Solutions
# Accurately weight 22.2 mg of the drug substance into a 100 mL volumetric flask, dissolve in about 5 mL ACN and dilute to volume with diluent. • Dissolution conditions • Dissolution medium: 0.25% CTAB in 0.1 M HCl • Temperature: 37° C. +/−0.5° C. • Agitation: 100 rpm +/−1 rpm • Type of agitation: Paddle (USP type II) • Volume of dissolution medium: 900 mL • Sampling time: 5, 10, 15, 30, 45, 60, 75 and 90 min • Sampling volume 5 ml (discard the first 3 ml) • Test on 6 vessels • place the sample (50 mg) into each dissolution vessel
# The non-corrected dissolved percentages were calculated as follows: […]
# The corrected dissolved percentage were calculated as follows: […]
# [3] = listed as Native (not milled) compound
SMILES,Particle size distribution D10 [1] [μm],Particle size distribution D50 [1] [μm],Particle size distribution D90 [1] [μm],Particle size distribution D10 ([1]; listed as milled ABX464) [μm],Particle size distribution D50 ([1]; listed as milled ABX464) [μm],Particle size distribution D90 ([1]; listed as milled ABX464) [μm],"solubility (percentage dissolved) at 45 min ([2]; 37° C., 45 min) [%]","solubility compared to the native compound (FIG. 2 dissolution profile) ([2]; milled at 8000 rpm vs native, 0.25% CTAB in 0.1 M HCl, 37° C.)","increase of solubility (percentage dissolved) of milled compound compared to the native compound at 45 min ([2]; same dissolution conditions, 45 min, milled (8000 rpm) vs native)","Particle size distribution D10 [1, 3] [μm]","Particle size distribution D50 [1, 3] [μm]","Particle size distribution D90 [1, 3] [μm]"
"FC(F)(F)Oc1ccc(Nc2ccc3cccc(Cl)c3n2)cc1 [milled compound, 8-chloro-N-(4-(trifluoromethoxy)phenyl)quinolin-2-amine]",6.8,50.0,122.0,6.8,50.0,122.0,95.4,improved solubility,about 38.1%,–,–,–
"FC(F)(F)Oc1ccc(Nc2ccc3cccc(Cl)c3n2)cc1 [native compound, 8-chloro-N-(4-(trifluoromethoxy)phenyl)quinolin-2-amine]",–,–,–,–,–,–,57.3,–,–,24.5,164.0,444.0
